Measurements from the CheMixHub ionic liquid set.

Assay: xn = mol fraction of the nth substance listed

CCOC(C)=O + CCO + CCCC[n+]1ccn(C)c1.O=S(=O)([N-]S(=O)(=O)C(F)(F)F)C(F)(F)F
298.15 K, 101 kPa
Details | viscosity [mPa·s]
x2 = 0.0086, x1 = 0.9023 | 0.967
x2 = 0.0173, x1 = 0.804 | 1.818
x2 = 0.0216, x1 = 0.8938 | 0.982
x2 = 0.026, x1 = 0.7051 | 3.29
x2 = 0.0299, x1 = 0.9014 | 0.806
x2 = 0.035, x1 = 0.6029 | 5.36
x2 = 0.0405, x1 = 0.8009 | 1.644
x2 = 0.0422, x1 = 0.521 | 7.65
x2 = 0.045, x1 = 0.8887 | 0.803
x2 = 0.0534, x1 = 0.3936 | 12.87
x2 = 0.0549, x1 = 0.8911 | 0.714
x2 = 0.0571, x1 = 0.9051 | 0.658
x2 = 0.0615, x1 = 0.7971 | 1.44
x2 = 0.0622, x1 = 0.2942 | 17.63
x2 = 0.0632, x1 = 0.6895 | 2.89
x2 = 0.0688, x1 = 0.2189 | 22.5
x2 = 0.0754, x1 = 0.1444 | 28.1
x2 = 0.0777, x1 = 0.6181 | 4.09
x2 = 0.0778, x1 = 0.1168 | 30.1
x2 = 0.08, x1 = 0.8998 | 0.526
x2 = 0.0815, x1 = 0.0753 | 34.1
x2 = 0.0882, x1 = 0.7818 | 1.308
x2 = 0.0925, x1 = 0.6947 | 2.35
x2 = 0.0953, x1 = 0.8644 | 0.656
x2 = 0.0984, x1 = 0.5164 | 6.16
x2 = 0.0997, x1 = 0.8023 | 1.05
x2 = 0.1177, x1 = 0.6116 | 3.32
x2 = 0.1191, x1 = 0.802 | 0.89
x2 = 0.1234, x1 = 0.3937 | 9.59
x2 = 0.125, x1 = 0.6908 | 1.976
x2 = 0.1404, x1 = 0.3101 | 13.03
x2 = 0.1414, x1 = 0.7989 | 0.789
x2 = 0.1455, x1 = 0.5201 | 4.81
x2 = 0.1477, x1 = 0.707 | 1.521
x2 = 0.1591, x1 = 0.8229 | 0.523
x2 = 0.1604, x1 = 0.6032 | 2.8
x2 = 0.1639, x1 = 0.1949 | 18.29
x2 = 0.1658, x1 = 0.7923 | 0.681
x2 = 0.1735, x1 = 0.1475 | 21.3
x2 = 0.183, x1 = 0.6956 | 1.289
x2 = 0.1841, x1 = 0.0957 | 24.4
x2 = 0.1843, x1 = 0.392 | 7.6
x2 = 0.1948, x1 = 0.043 | 28.1
x2 = 0.1978, x1 = 0.5106 | 3.97
x2 = 0.1995, x1 = 0.6042 | 2.19
x2 = 0.2059, x1 = 0.7708 | 0.557
x2 = 0.213, x1 = 0.2974 | 10.46
x2 = 0.2132, x1 = 0.6967 | 1.026
x2 = 0.2314, x1 = 0.6152 | 1.684
x2 = 0.2434, x1 = 0.1969 | 14.03
x2 = 0.2448, x1 = 0.6933 | 0.829
x2 = 0.2449, x1 = 0.394 | 5.82
x2 = 0.247, x1 = 0.51 | 3.05
x2 = 0.2609, x1 = 0.1391 | 16.65
x2 = 0.2729, x1 = 0.0996 | 18.5
x2 = 0.2797, x1 = 0.6021 | 1.324
x2 = 0.2857, x1 = 0.2933 | 8.02
x2 = 0.2868, x1 = 0.0538 | 21
x2 = 0.2924, x1 = 0.6745 | 0.658
x2 = 0.2972, x1 = 0.5057 | 2.33
x2 = 0.3062, x1 = 0.3928 | 4.4
x2 = 0.3201, x1 = 0.5989 | 1.006
x2 = 0.3236, x1 = 0.1993 | 10.53
x2 = 0.3448, x1 = 0.147 | 12.41
x2 = 0.3553, x1 = 0.4946 | 1.727
x2 = 0.356, x1 = 0.294 | 5.97
x2 = 0.3662, x1 = 0.094 | 14.33
x2 = 0.3681, x1 = 0.3878 | 3.28
x2 = 0.3736, x1 = 0.5842 | 0.736
x2 = 0.3833, x1 = 0.0516 | 16.14
x2 = 0.3974, x1 = 0.502 | 1.235
x2 = 0.4042, x1 = 0.1983 | 7.96
x2 = 0.4237, x1 = 0.3973 | 2.32
x2 = 0.4281, x1 = 0.288 | 4.46
x2 = 0.4291, x1 = 0.149 | 9.07
x2 = 0.4547, x1 = 0.0982 | 10.36
x2 = 0.4684, x1 = 0.4786 | 0.869
x2 = 0.4784, x1 = 0.0511 | 11.87
x2 = 0.4799, x1 = 0.3986 | 1.585
x2 = 0.4832, x1 = 0.1963 | 5.71
x2 = 0.508, x1 = 0.155 | 6.45
x2 = 0.5162, x1 = 0.2658 | 3.24
x2 = 0.5407, x1 = 0.1007 | 7.42
x2 = 0.5473, x1 = 0.3908 | 1.023
x2 = 0.5621, x1 = 0.2957 | 2.03
x2 = 0.5657, x1 = 0.1954 | 3.92
x2 = 0.574, x1 = 0.0452 | 8.7
x2 = 0.598, x1 = 0.1495 | 4.39
x2 = 0.6293, x1 = 0.2115 | 2.49
x2 = 0.6333, x1 = 0.0992 | 5.1
x2 = 0.6413, x1 = 0.2861 | 1.252
x2 = 0.6634, x1 = 0.0564 | 5.74
x2 = 0.6743, x1 = 0.1551 | 2.84
x2 = 0.7038, x1 = 0.1181 | 3.11
x2 = 0.7282, x1 = 0.1894 | 1.533
x2 = 0.7476, x1 = 0.0632 | 3.67
x2 = 0.7565, x1 = 0.1579 | 1.636
x2 = 0.8052, x1 = 0.1037 | 1.848
x2 = 0.8459, x1 = 0.0584 | 2.09

CCCC[n+]1ccn(C)c1.F[P-](F)(F)(F)(F)F + CCOC(C)=O
298.15 K
Details | electrical conductivity, x2 = 0.2746 [S/m] | electrical conductivity, x2 = 0.4156 [S/m] | electrical conductivity, x2 = 0.7532 [S/m] | electrical conductivity, x2 = 0.8821 [S/m] | viscosity, x2 = 0.2746 [mPa·s] | viscosity, x2 = 0.4156 [mPa·s] | viscosity, x2 = 0.6524 [mPa·s] | viscosity, x2 = 0.7532 [mPa·s] | viscosity, x2 = 0.8821 [mPa·s]
101 kPa | 0.452 | 0.67 | 1.12 | 0.726 | 60.7 | 27.8 | – | 3.33 | 1.43
101.3 kPa | – | – | – | – | – | – | 6.22 | – | –

CC(=O)c1ccccc1 + CCOS(=O)(=O)[O-].CC[n+]1ccn(C)c1
100 kPa
Details | viscosity [mPa·s]
293.15 K, x1 = 0.7973 | 4.3
303.15 K, x1 = 0.2 | 27.1
303.15 K, x1 = 0.4002 | 16.4
303.15 K, x1 = 0.7973 | 5.3
303.15 K, x1 = 0.9502 | 2.48
303.15 K, x1 = 1 | 1.65
313.15 K, x1 = 0.6921 | 5.6
313.15 K, x1 = 0.8999 | 3.3
313.15 K, x1 = 0.9502 | 2
313.15 K, x1 = 1 | 1.37
323.15 K, x1 = 0.3008 | 10.7
323.15 K, x1 = 0.5999 | 5.8
323.15 K, x1 = 0.8999 | 1.94
323.15 K, x1 = 1 | 1.17
333.15 K, x1 = 0.0505 | 16.2
333.15 K, x1 = 0.0997 | 14.2

CC[n+]1ccn(C)c1.O=S(=O)([O-])O + CC[C@H](C)[C@H](N)C(=O)O + O
viscosity [mPa·s], 100 kPa
Details | 293.15 K | 298.15 K | 303.15 K | 308.15 K | 313.15 K
x2 = 0, x1 = 0.0005421 | 1.046 | 0.929 | 0.824 | 0.75 | 0.678
x2 = 0, x1 = 0.0009056 | 1.068 | 0.949 | 0.843 | 0.759 | 0.684
x2 = 0, x1 = 0.001263 | 1.073 | 0.966 | 0.866 | 0.78 | 0.697
x2 = 0.0004219, x1 = 0.0009052 | 1.093 | 0.961 | 0.853 | 0.769 | 0.693
x2 = 0.0004673, x1 = 0.001263 | 1.101 | 0.979 | 0.878 | 0.79 | 0.708
x2 = 0.0005036, x1 = 0.0005418 | 1.075 | 0.943 | 0.837 | 0.762 | 0.69
x2 = 0.0007653, x1 = 0.0009049 | 1.113 | 0.97 | 0.862 | 0.777 | 0.701
x2 = 0.0008312, x1 = 0.0005417 | 1.094 | 0.953 | 0.845 | 0.77 | 0.697
x2 = 0.000832, x1 = 0.001262 | 1.122 | 0.989 | 0.887 | 0.799 | 0.716
x2 = 0.0009488, x1 = 0.0005416 | 1.1 | 0.956 | 0.848 | 0.773 | 0.7
x2 = 0.00107, x1 = 0.0009046 | 1.131 | 0.979 | 0.87 | 0.785 | 0.708
x2 = 0.001216, x1 = 0.001262 | 1.145 | 0.999 | 0.897 | 0.808 | 0.724
x2 = 0.001364, x1 = 0.001262 | 1.154 | 1.003 | 0.901 | 0.812 | 0.728
x2 = 0.001515, x1 = 0.0009042 | 1.157 | 0.991 | 0.881 | 0.795 | 0.717
x2 = 0.001572, x1 = 0.0005413 | 1.136 | 0.973 | 0.864 | 0.789 | 0.714
x2 = 0.001693, x1 = 0.0005412 | 1.143 | 0.977 | 0.867 | 0.792 | 0.717
x2 = 0.001746, x1 = 0.001261 | 1.176 | 1.013 | 0.91 | 0.821 | 0.736
x2 = 0.001796, x1 = 0.000904 | 1.174 | 0.999 | 0.888 | 0.802 | 0.724
x2 = 0.002205, x1 = 0.0009036 | 1.198 | 1.01 | 0.898 | 0.812 | 0.733
x2 = 0.002228, x1 = 0.0005409 | 1.174 | 0.991 | 0.881 | 0.805 | 0.729
x2 = 0.002256, x1 = 0.001261 | 1.206 | 1.027 | 0.923 | 0.833 | 0.747
x2 = 0.002728, x1 = 0.00126 | 1.23 | 1.04 | 0.935 | 0.844 | 0.758
